Results on 18 compounds are retold here after PubChem BioAssay AID328 (DTP/NCI, 2004).

The subject of this assay is BDF1 mice, P388 leukemia ip, median survival T/C. Nature of the assay: NCI In Vivo Anticancer Drug Screen. Data for tumor model P388 Leukemia (intraperitoneal) in B6D2F1 (BDF1) mice. Particulars: endpoint: median survival time, higher = longer survival. Summed up:
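Each value expresses how treatment altered survival: treated-mouse outcome over vehicle-mouse outcome, both groups bearing the transplanted tumour.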

[1] abbreviates: dose: 12.5 mg/kg/injection, schedule: Q01DX009 (ip), vehicle: saline.
Setting [2] is: dose: 25.0 mg/kg/injection, schedule: Q01DX009 (ip), vehicle: saline.
Setting [3] is: dose: 50.0 mg/kg/injection, schedule: Q01DX009 (ip), vehicle: saline.
Setting [4] is: dose: 50.0 mg/kg/injection, schedule: Q01DX009 (ip), vehicle: saline with Tween-80.
The mark [5] stands for this setting: dose: 100.0 mg/kg/injection, schedule: Q01DX009 (ip), vehicle: saline with Tween-80.
[6] abbreviates: dose: 100.0 mg/kg/injection, schedule: Q04DX003 (ip), vehicle: saline with Tween-80.
Where [7] appears, read: dose: 200.0 mg/kg/injection, schedule: Q01DX009 (ip), vehicle: saline with Tween-80.
Where [8] appears, read: dose: 200.0 mg/kg/injection, schedule: Q04DX003 (ip), vehicle: saline with Tween-80.
Where [9] appears, read: dose: 400.0 mg/kg/injection, schedule: Q04DX003 (ip), vehicle: saline with Tween-80.
Where [10] appears, read: dose: 100.0 mg/kg/injection, schedule: Q04DX002 (ip), vehicle: saline with Tween-80.
Setting [11] is: dose: 200.0 mg/kg/injection, schedule: Q04DX002 (ip), vehicle: saline with Tween-80.
Where [12] appears, read: dose: 2.5 mg/kg/injection, schedule: Q01DX009 (ip), vehicle: saline.

“And” between values parts separate entries of the source, which are not always exact repeats. Identical values can stand only once. Toxic doses and inconclusive results are not listed.

Consider `CO[C@H]1Nc2c(ccc(C)c2O)C(=O)N2C=C(/C=C/C(N)=O)C[C@@H]12`, for which the T/C (dose: 0.02 mg/kg/injection, schedule: Q01DX010 (ip), vehicle: carboxymethylcellulose (CMC)) is 230 % of control; the T/C (dose: 0.05 mg/kg/injection, schedule: Q01DX010 (ip), vehicle: carboxymethylcellulose (CMC)) was 230 % of control; the T/C (dose: 0.08 mg/kg/injection, schedule: Q01DX009 (ip), vehicle: Klucel (hydroxypropylcellulose) (HPC)) is 242 % of control; the T/C (dose: 0.08 mg/kg/injection, schedule: Q01DX009 (ip), vehicle: saline) is 150 % of control; the T/C (dose: 0.1 mg/kg/injection, schedule: Q01DX010 (ip), vehicle: carboxymethylcellulose (CMC)) was 210 % of control; the T/C (dose: 0.12 mg/kg/injection, schedule: Q01DX009 (ip), vehicle: saline with Tween-80) was 168 % of control. The T/C reads like this: (dose: 0.18 mg/kg/injection, schedule: Q01DX009 (ip), vehicle: Klucel (hydroxypropylcellulose) (HPC)) 238 % of control; (dose: 0.2 mg/kg/injection, schedule: Q01DX010 (ip), vehicle: carboxymethylcellulose (CMC)) 185 % of control; (dose: 0.25 mg/kg/injection, schedule: Q01DX010 (ip), vehicle: saline) 90 % of control; (dose: 151.0 micrograms/kg/injection, schedule: Q04DX003 (ip), vehicle: saline + alcohol) 186 % of control; (dose: 216.0 micrograms/kg/injection, schedule: Q04DX003 (ip), vehicle: saline + alcohol) 177 % of control and 189 % of control; (dose: 252.0 micrograms/kg/injection, schedule: Q04DX003 (ip), vehicle: saline + alcohol) 208 % of control. Further, the T/C was 183 % of control and 196 % of control (dose: 360.0 micrograms/kg/injection, schedule: Q04DX003 (ip), vehicle: saline + alcohol); 215 % of control (dose: 420.0 micrograms/kg/injection, schedule: Q04DX003 (ip), vehicle: saline + alcohol); 94 % of control and 112 % of control (dose: 600.0 micrograms/kg/injection, schedule: Q04DX003 (ip), vehicle: saline + alcohol).

As for `Cc1nc(Cl)c2cnccn12`, the T/C by setting is: under setting [1], 100 % of control; under setting [2], 95 % of control; under setting [3], 86 % of control.

As for `NC(=O)c1nccnc1Cl`, the T/C by setting is: under setting [4], 110 % of control; (dose: 50.0 mg/kg/injection, schedule: Q04DX003 (ip), vehicle: saline with Tween-80) 101 % of control; under setting [5], 98 % of control; under setting [6], 102 % of control and 111 % of control; under setting [7], 91 % of control; under setting [8], 88 % of control and 104 % of control. The T/C under setting [9] was 92 % of control and 101 % of control.

`COC(=O)C1C2(C)CCc3cc(OC)ccc3C2=CC(=O)C1(C)C(=O)OC` (stereo unspecified): the T/C is 100 % of control (dose: 50.0 mg/kg/injection, schedule: Q04DX003 (sc), vehicle: steriod suspending solution) and 90 % of control (dose: 100.0 mg/kg/injection, schedule: Q04DX003 (sc), vehicle: steriod suspending solution).

Consider `CCOC(=O)/C(C#N)=C/N(C)Cc1ccccc1`, for which the T/C is, setting by setting: under setting [4], 108 % of control; under setting [5], 105 % of control.

`COc1cc2c(cc1OCc1ccccc1)C=CN(C(=O)c1ccccc1)C2C#N` (stereo unspecified): the T/C under setting [2] was 105 % of control; the T/C (dose: 25.0 mg/kg/injection, schedule: Q04DX003 (ip), vehicle: saline) is 103 % of control; the T/C under setting [3] was 92 % of control; the T/C (dose: 50.0 mg/kg/injection, schedule: Q04DX003 (ip), vehicle: saline) was 100 % of control; the T/C (dose: 100.0 mg/kg/injection, schedule: Q01DX009 (ip), vehicle: saline) was 93 % of control; the T/C (dose: 100.0 mg/kg/injection, schedule: Q04DX003 (ip), vehicle: saline) was 97 % of control. Moreover, the T/C is 90 % of control (dose: 200.0 mg/kg/injection, schedule: Q01DX009 (ip), vehicle: saline); 103 % of control (dose: 200.0 mg/kg/injection, schedule: Q04DX003 (ip), vehicle: saline); 96 % of control (dose: 400.0 mg/kg/injection, schedule: Q01DX009 (ip), vehicle: saline); 97 % of control (dose: 400.0 mg/kg/injection, schedule: Q04DX003 (ip), vehicle: saline).

Regarding `Nc1ccccc1N`, the T/C is, setting by setting: (dose: 25.0 mg/kg/injection, schedule: Q01DX009 (ip), vehicle: saline with Tween-80) 92 % of control and 100 % of control; under setting [4], 100 % of control; under setting [7], 97 % of control.

For `CC(=O)Nc1ccccc1C1SCCCS1`, the T/C was 102 % of control (dose: 50.0 mg/kg/injection, schedule: Q04DX002 (ip), vehicle: saline with Tween-80); 98 % of control under setting [10]; 106 % of control under setting [11].

In the case of `Nc1nc2c(ncn2C2OC(CO)C(O)C2N)c(=O)[nH]1` (stereo unspecified), the T/C is, setting by setting: (dose: 3.12 mg/kg/injection, schedule: Q01DX009 (ip), vehicle: saline) 111 % of control; (dose: 6.25 mg/kg/injection, schedule: Q01DX009 (ip), vehicle: saline) 111 % of control and 124 % of control; under setting [1], 102 % of control and 117 % of control; under setting [2], 93 % of control and 111 % of control; under setting [3], 108 % of control; under setting [6], 109 % of control. In addition, under setting [9], the T/C was 100 % of control.

In the case of `Brc1csc2ncccc12`, the T/C was 90 % of control (dose: 100.0 mg/kg/injection, schedule: Q04DX003 (ip), vehicle: Klucel (hydroxypropylcellulose) (HPC)) and 109 % of control (dose: 200.0 mg/kg/injection, schedule: Q04DX003 (ip), vehicle: Klucel (hydroxypropylcellulose) (HPC)).

Turning to `CS(=O)(=O)CC(O)(c1ccccc1)c1ccccn1` (stereo unspecified), the T/C under setting [4] is 90 % of control, the T/C under setting [5] was 89 % of control and the T/C under setting [7] is 89 % of control.

Take `N#CC(Br)C(N)=O` (stereo unspecified): the T/C is 98 % of control under setting [12] and 120 % of control (dose: 5.0 mg/kg/injection, schedule: Q01DX009 (ip), vehicle: saline).

Consider `CCCCCC(O)C1C(=O)OC(C)C(O)/C=C/C=C/C=C/C=C\C=C(\C)C(O)CC(O)CC(O)CC(O)CC(O)CC(O)CC1O` (stereo unspecified), for which the T/C was 111 % of control under setting [12]; 95 % of control (dose: 5.0 mg/kg/injection, schedule: Q01DX009 (ip), vehicle: Klucel (hydroxypropylcellulose) (HPC)); 105 % of control (dose: 10.0 mg/kg/injection, schedule: Q01DX009 (ip), vehicle: Klucel (hydroxypropylcellulose) (HPC)); 90 % of control (dose: 20.0 mg/kg/injection, schedule: Q01DX009 (ip), vehicle: Klucel (hydroxypropylcellulose) (HPC)).

For the compound `CC(=O)C(=O)NC1/C=C(C)\C=C/C(O)C/C=C(C)\C=C/C(O)CC2OC(=O)C1(C)C(=O)C2C` (stereo unspecified), the T/C was 109 % of control and 122 % of control (dose: 50.0 mg/kg/injection, schedule: Q01DX009 (ip), vehicle: Klucel (hydroxypropylcellulose) (HPC)); 153 % of control and 163 % of control (dose: 200.0 mg/kg/injection, schedule: Q01DX009 (ip), vehicle: Klucel (hydroxypropylcellulose) (HPC)); 171 % of control (dose: 400.0 mg/kg/injection, schedule: Q01DX009 (ip), vehicle: Klucel (hydroxypropylcellulose) (HPC)).

Regarding `COC(=S)Nc1ccc2c(c1)nc(-c1ccccc1)c1cc(NC(=S)OC)ccc12`, the T/C runs as follows: under setting [10], 101 % of control; under setting [11], 101 % of control; (dose: 400.0 mg/kg/injection, schedule: Q04DX002 (ip), vehicle: saline with Tween-80) 90 % of control.

Turning to `Cc1ccc(CNc2ccccc2)cc1`, the T/C is 120 % of control (dose: 25.0 mg/kg/injection, schedule: Q04DX003 (ip), vehicle: other); 105 % of control (dose: 50.0 mg/kg/injection, schedule: Q04DX003 (ip), vehicle: other); 110 % of control (dose: 100.0 mg/kg/injection, schedule: Q04DX003 (ip), vehicle: other).

For `C[C@H]1[C@H](O)[C@H]2[C@@H](CCC3=CC(=O)CC[C@@]32C)[C@@H]2CC[C@H](O)[C@@]12C`, the T/C under setting [5] is 100 % of control; the T/C under setting [6] was 91 % of control; the T/C under setting [7] is 87 % of control and 100 % of control; the T/C under setting [8] is 95 % of control; the T/C (dose: 400.0 mg/kg/injection, schedule: Q01DX009 (ip), vehicle: saline with Tween-80) is 87 % of control and 118 % of control; the T/C under setting [9] was 91 % of control.

On to `CCCCCCCCCCCCCCCCCCOc1cccc(C(F)(F)F)c1`, for which the T/C is, setting by setting: (dose: 50.0 mg/kg/injection, schedule: Q01DX001 (ip), vehicle: saline with Tween-80) 105 % of control; (dose: 100.0 mg/kg/injection, schedule: Q01DX001 (ip), vehicle: saline with Tween-80) 100 % of control; (dose: 200.0 mg/kg/injection, schedule: Q01DX001 (ip), vehicle: saline with Tween-80) 90 % of control.
